Experimental data reported in publication PMC8380212, “^18F-labeled tracers targeting fibroblast activation protein” (EJNMMI Radiopharmacy and Chemistry, 2021).

Experiments:
[1] = Determination of logD values (1-octanol / PBS); type: physicochemical; settings: 1-octanol / phosphate buffered saline, pH 7.4
Method: All experiments for the determination of logD values were performed in triplicate. For the determination by means of radioactivity, around 5 × 10^6 cpm in ca. 1 µL of radioactive stock solutions (water/acetonitrile 1:1) were added to 100 µL phosphate buffered saline (PBS, pH 7.4) and 100 µL of 1-octanol. The mixture was vortexed for 1 min, followed by 5 min of centrifugation for phase separation. A sample of each phase (10 or 50 µL) was measured for radioactivity per volume (Packard Cobra II Autogamma, GMI Inc., USA). In case of FAPI-72 and -73, the reference compounds [^19F]-FAPI-72 and -73 were dissolved in PBS at a concentration of 1 mg/mL. 50 µL of these solutions were each mixed with 50 µL 1-octanol and processed by vortexing and centrifugation as described above. 1 µL of each phase was analyzed by HPLC and the individual content of compound was determined by peak integration. The area under the peaks of the individual runs was used to calculate the log D value.
Fig. 1 Overview of the synthesized precursors discussed in this study. The corresponding log D values were determined by detection of the radiolabeled tracer in 1-octanol and phosphate buffered saline (pH 7). For values labeled with an asterix, the log D was calculated from the relative content of the non-radioactive reference standards in the 1-octanol and the water phase by HPLC analysis and peak integration TEXT PRINTED IN THE PICTURE: FAPI-42: LOG D: -1.63±0.06 | FAPI-52: LOG D: -1.90±0.02 | FAPI-72: LOG D: 1.20±0.01* | FAPI-73: LOG D: 1.13±0.05* | FAPI-74: LOG D: -2.42±0.03 | FAPI-75: LOG D: -3.36±0.12 | FAPI-76: LOG D: -2.86±0.07

[2] = biological target: T1, FAP‐transfected HT‐1080‐FAP cells (Homo sapiens, UniProt Q12884); assay: In vitro binding/uptake on FAP-transfected HT-1080-FAP cells; type: cell-based; settings: HT1080-FAP cells; for uptake 10 min: 10 min incubation; for uptake 60 min: 60 min incubation; for uptake 120 min: 120 min incubation; for uptake, measurement at 90 min: printed in 120 min column, footnote a: 90 min
T1 construct: expressed in transfected cells; host or cells: HT-1080 cells transfected with FAP (HT-1080-FAP)
T1 sequence (Q12884 1-760): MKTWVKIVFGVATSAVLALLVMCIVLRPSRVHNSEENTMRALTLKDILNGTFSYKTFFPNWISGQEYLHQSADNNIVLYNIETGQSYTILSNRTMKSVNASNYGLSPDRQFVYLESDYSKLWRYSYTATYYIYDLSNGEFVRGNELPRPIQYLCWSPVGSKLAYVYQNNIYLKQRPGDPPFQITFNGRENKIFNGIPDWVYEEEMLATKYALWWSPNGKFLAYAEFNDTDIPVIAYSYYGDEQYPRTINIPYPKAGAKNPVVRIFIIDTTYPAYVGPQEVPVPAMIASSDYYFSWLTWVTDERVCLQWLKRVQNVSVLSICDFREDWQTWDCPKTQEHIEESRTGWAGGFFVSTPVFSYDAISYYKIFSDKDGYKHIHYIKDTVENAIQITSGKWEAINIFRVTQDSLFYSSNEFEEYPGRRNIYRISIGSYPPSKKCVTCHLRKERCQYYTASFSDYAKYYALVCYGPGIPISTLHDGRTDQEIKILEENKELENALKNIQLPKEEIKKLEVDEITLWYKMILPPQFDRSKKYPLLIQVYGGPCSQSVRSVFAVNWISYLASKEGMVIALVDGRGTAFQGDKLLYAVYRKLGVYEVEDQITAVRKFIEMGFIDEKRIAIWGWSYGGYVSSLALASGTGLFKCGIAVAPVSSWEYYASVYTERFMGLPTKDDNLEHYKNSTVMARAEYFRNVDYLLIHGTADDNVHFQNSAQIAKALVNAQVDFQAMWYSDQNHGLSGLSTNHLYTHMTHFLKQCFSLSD
Method: (§1) The binding properties of the FAPI derivatives were evaluated using the FAP‐transfected HT‐1080‐FAP and CD26 expressing HEK-CD26 cells. All cells were cultivated in Dulbecco's modified Eagle's medium (DMEM) containing 10% fetal calf serum (FCS) at 37 °C/5% carbon dioxide. Cells were seeded in 6-well plates and cultivated to a final confluence of approximately 80–90% (1.2 to 2.0 × 10^6 cells/well). After washing with FCS free medium, for each well ca. 3 kBq of the radiolabeled compound (10–20 GBq/µmol for [^18F]AlF-labeling) was added to the cells in FCS free medium. On completion of the individual incubation time, cells were washed with PBS and treated with 1.4 mL lysis buffer (0.3 m NaOH, 0.2% SDS) before being transferred to measuring tubes. Competition experiments were performed by co-incubation with the unlabeled precursor for 60 min. Radioactivity was determined in a Wizard Gamma Counter (Perkin Elmer), normalized to 10^6 cells and calculated as percentage of the applied dose (%AD). Each experiment was performed in triplicate.

[3] = biological target: T2, FAP (HT-1080-FAP cells) (Homo sapiens, UniProt Q12884); assay: Competition experiments with unlabeled precursor on HT-1080-FAP cells; type: binding; settings: co-incubation with unlabeled precursor for 60 min
T2 construct: expressed in transfected cells; host or cells: HT-1080 cells transfected with FAP (HT-1080-FAP)
T2 sequence (Q12884 1-760): T1 sequence (Q12884 1-760)
Method: as §1

[4] = system: HT-1080-FAP xenografts; assay: Small animal PET imaging; type: in vivo, BALB/c nu/nu mice; settings: for Tumor Uptake (SUVmean) 8 min / Tumor Uptake (SUVmean) 22 min / Tumor Uptake (SUVmean) 57 min / Tumor Uptake (SUVmean) 120 min: HT1080-FAP transplanted nude mice
Method: Eight-week-old BALB/c nu/nu mice (Charles River) were subcutaneously inoculated with 5 × 10^6 HT-1080-FAP cells. The subcutaneous xenografts were grown at the flanks of the mice. Xenografts were grown to a tumor diameter of 10–15 mm. Mice were anesthetized using isoflurane inhalation. 5–10 MBq of the [^18F]AlF-labeled compounds/ the respective tracer (FAPI-42/52/74/75/76; approx. 0.5 nmol; Am approximately 10–20 GBq/µmol) were injected intravenously for PET imaging. In vivo competition (blocking) experiments with ^68 Ga-FAPI-74 (9 MBq; 18.2 GBq/µmol) were performed by adding 30 nmol of unlabeled FAPI-74 to the injection solution. Images were acquired using a small-animal PET scanner (Inveon, Siemens). Within the first 60 min p.i., a dynamic scan was performed in list mode, followed by a static scan from 120–140 min post injection. Images were reconstructed iteratively using the 3D-OSEM + MAP method (Siemens) and were converted to standardized uptake value (SUV). For the dynamic analysis, 28 frames were reconstructed. Quantification was based on ROI analysis and expressed as SUV.
SUPPLEMENTAL TABLE 1: Tumor-SUVmean values of all mentioned ^18F labeled FAPI-derivatives in HT1080-FAP transplanted nude mice at different time points. The time points 8 min, 22 min and 57 min were selected from the applied 28-frame 3D-OSEM+MAP (Siemens) reconstruction method.

[5] = system: U87MG- and A549-xenograft models; settings: in vivo; cited from earlier work
[6] = biological target: T3, CD26 expressing HEK-CD26 cells (Homo sapiens, UniProt P27487); assay: In vitro binding on HEK-CD26 cells (negative control); type: cell-based
T3 construct: expressed in transfected cells; host or cells: HEK cells transfected with CD26/DPP4 (HEK-CD26)
T3 sequence (P27487 whole entry): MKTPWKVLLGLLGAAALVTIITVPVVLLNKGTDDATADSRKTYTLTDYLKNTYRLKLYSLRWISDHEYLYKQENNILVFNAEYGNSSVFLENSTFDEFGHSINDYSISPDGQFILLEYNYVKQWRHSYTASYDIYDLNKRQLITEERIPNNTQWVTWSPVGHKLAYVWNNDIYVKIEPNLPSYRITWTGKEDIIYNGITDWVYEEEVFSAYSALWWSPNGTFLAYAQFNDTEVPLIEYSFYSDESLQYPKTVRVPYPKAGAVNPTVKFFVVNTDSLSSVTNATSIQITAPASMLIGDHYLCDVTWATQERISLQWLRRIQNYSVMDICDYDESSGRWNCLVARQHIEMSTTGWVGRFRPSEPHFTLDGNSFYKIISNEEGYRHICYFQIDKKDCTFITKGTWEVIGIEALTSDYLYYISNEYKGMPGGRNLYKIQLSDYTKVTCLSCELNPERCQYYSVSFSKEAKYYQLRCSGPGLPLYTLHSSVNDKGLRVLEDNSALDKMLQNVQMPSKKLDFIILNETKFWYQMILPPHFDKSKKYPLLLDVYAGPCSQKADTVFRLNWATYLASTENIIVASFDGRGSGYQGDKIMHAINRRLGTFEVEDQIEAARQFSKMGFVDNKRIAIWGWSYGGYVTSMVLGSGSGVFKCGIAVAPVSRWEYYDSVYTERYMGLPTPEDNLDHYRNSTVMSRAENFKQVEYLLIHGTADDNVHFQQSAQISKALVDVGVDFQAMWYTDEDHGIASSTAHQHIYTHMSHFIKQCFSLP
Method: as §1

[7] = system: wild type HT1080 cells; assay: In vitro binding on wild type HT1080 cells (negative control); type: cell-based
Method: as §1
Table 1 summarizes the uptake and EC50 values of the discussed ^18F-labeled FAPI derivatives using the FAP-transfected cell line HT-1080-FAP. Additionally, the lead candidates FAPI-74 to -76 were tested on HEK-CD26 as well as -74 and -75 on wild type HT1080 cells as negative control. […] For FAPI-74, a plateau was already reached after approximately 10 min with 27.2 ± 0.88%AD/10^6cells. […] The EC50 values were all in the low to sub-nanomolar range. Only a neglectable fraction of FAPIs 74–76 were detected on HEK-CD26 cells (0.18–0.24%) as well as on wildtype HT1080 in case of -74 and 75 (< 0.1%).

[8] = radiolabeled tracer detected by radioactivity in 1-octanol and phosphate buffered saline
[9] = non-radioactive reference standards, 1-octanol and water phase, HPLC analysis and peak integration (asterisk)
[10] = small animal PET, HT-1080-FAP xenograft

| SMILES | logD [1, 8] | uptake 10 min [2] | uptake 60 min [2] | uptake 120 min [2] | EC50 [3] | Tumor Uptake (SUVmean) 8 min [4] | Tumor Uptake (SUVmean) 22 min [4] | Tumor Uptake (SUVmean) 57 min [4] | Tumor Uptake (SUVmean) 120 min [4] | logD [1, 9] | uptake, measurement at 90 min [2] | detectability of tumor region in PET [4, 10] | further results |
| --- | --- | --- | --- | --- | --- | --- | --- | --- | --- | --- | --- | --- | --- |
| CN(CCCN1CCN(C(=O)CN2CCN(CC(=O)O)CCN(CC(=O)O)CC2)CC1)c1ccc2nccc(C(=O)NCC(=O)N3CC(F)(F)C[C@H]3C#N)c2c1 [FAPI-52] | -1.9 ± 0.02 | 32.0 ± 0.28 %AD/10^6 cells | 45.9 ± 0.54 %AD/10^6 cells | 53.2 ± 1.38 %AD/10^6 cells | 3.2 nM | 0.65 | 0.55 | 0.47 | 0.20 |  |  |  |  |
| N#C[C@@H]1CC(F)(F)CN1C(=O)CNC(=O)c1ccnc2ccc(OCCCN3CCN(C(=O)CN4CCN(CC(=O)O)CCN(CC(=O)O)CC4)CC3)cc12 [FAPI-42] | -1.63 ± 0.06 | 40.0 ± 1.73 %AD/10^6 cells | 61.2 ± 1.76 %AD/10^6 cells | 58.0 ± 2.24 %AD/10^6 cells | 3.3 nM | 1.05 | 1.0 | 0.73 | 0.60 |  |  |  | elimination and bone accumulation [5]: hepatobiliary elimination together with an accumulation in the bone; tumor uptake SUVmean at early timepoints ([4]; small animal PET screening, early timepoints): approx. 1.0 |
| CN(CCCN1CCN(C(=O)c2ccc([N+](C)(C)C)nc2)CC1)c1ccc2nccc(C(=O)NCC(=O)N3CC(F)(F)C[C@H]3C#N)c2c1 [FAPI-72] |  | 13.9 ± 0.60 %AD/10^6 cells | 23.6 ± 0.40 %AD/10^6 cells |  | < 1 nM | 0.19 | 0.15 | 0.13 | 0.1 | 1.2 ± 0.01 | 24.4 ± 0.30^a %AD/10^6 cells | hardly detectable |  |
| N#C[C@@H]1CC(F)(F)CN1C(=O)CNC(=O)c1ccnc2ccc(OCCCN3CCN(C(=O)[C@H](CC(C(=O)O)C(=O)O)NC(=O)CN4CCN(CC(=O)O)CCN(CC(=O)O)CC4)CC3)cc12 [FAPI-75] | -3.36 ± 0.12 | 34.9 ± 0.26 %AD/10^6 cells | 74.0 ± 2.07 %AD/10^6 cells | 82.35 ± 3.61 %AD/10^6 cells | 3.1 nM | 1.55 | 2.06 | 2.24 | 1.9 |  |  |  | uptake CD26 [6]: 0.18 ± 0.02 %AD/10^6 cells; uptake WT ([7]; wild type HT1080 control cells): 0.06 ± 0.01 %AD/10^6 cells; fraction detected on wildtype HT1080 ([7]; wildtype HT1080, text): < 0.1%; excretion pathway ([4]; small animal PET in tumor bearing mice): favorable renal excretion; tumor uptake SUVmean ([4]; small animal PET screening, discussion): approx. 2.0; tumor-SUV max [4, 10]: 3.7; tumor-SUV mean [4, 10]: 2.2 |
| C[N+](C)(C)c1ccc(C(=O)N2CCN(CCCOc3ccc4nccc(C(=O)NCC(=O)N5CC(F)(F)C[C@H]5C#N)c4c3)CC2)cn1 [FAPI-73] |  | 22.7 ± 0.24 %AD/10^6 cells | 39.2 ± 0.48 %AD/10^6 cells |  | < 1 nM | 0.45 | 0.44 | 0.42 | 0.33 | 1.13 ± 0.05 | 39.6 ± 0.95^a %AD/10^6 cells | hardly detectable |  |
